Reference: patent US8841233B2, “Herbicidal compositions comprising 4-amino-3-chloro-5-fluoro-6-(4-chloro-2-fluoro-3-methoxyphenyl) pyridine-2-carboxylic acid or a derivative thereof and 4-hydroxyphenyl-pyruvate dioxygenase (HPPD) inhibitors” (Dow Agrosciences LLC, priority 2012, dated 2014)

System: ECHCG
Assay: Post-emergence foliar-applied weed control, greenhouse (Example I)
Format: in vivo, Echinochloa crusgalli (L.) Beauv.
Text: Evaluation of Post-emergence Foliar-Applied Herbicidal Mixtures for Weed Control in Direct Seeded Rice
Seeds or nutlets of the desired test plant species were planted in a soil matrix prepared by mixing a loam or sandy loam soil (e.g., 28.6 percent silt, 18.8 percent clay, and 52.6 percent sand, with a pH of about 5.8 and an organic matter content of about 1.8 percent) and calcareous grit in an 80 to 20 ratio. The soil matrix was contained in plastic pots with a volume of 1 quart and a surface area of 83.6 square centimeters (cm^2). When required to ensure good germination and healthy plants, a fungicide treatment and/or other chemical or physical treatment was applied. The plants were grown for 8-22 days in a greenhouse with an approximate 14 h photoperiod which was maintained at about 29° C. during the day and 26° C. during the night. Nutrients (Peters Excel® 15-5-15 5-Ca 2-Mg and iron chelate) were applied in the irrigation solution as needed and water was added on a regular basis. Supplemental lighting was provided with overhead metal halide 1000-Watt lamps as necessary. The plants were employed for testing when they reached the first through fourth true leaf stage.
Treatments consisted of the acid or esters of 4-amino-3-chloro-5-fluoro-6-(4-chloro-2-fluoro-3-methoxy-phenyl)pyridine-2-carboxylic acid (Compound A), each formulated as an SC (suspension concentrate), and various herbicidal components alone and in combination. Forms of Compound A were applied on an acid equivalent basis.
Other herbicidal components were applied on an active ingredient basis and included 4-hydroxyphenyl pyruvate dioxygenase (HPPD)-inhibiting herbicides mesotrione formulated as Callisto®, sulcotrione formulated as Mikado®, pyrazolynate formulated as Sunbird® 10% GR, and benzobicyclon formulated as Benzobicyclon 3.5%.
Treatment requirements were calculated based upon the rates being tested, the concentration of active ingredient or acid equivalent in the formulation, and a 12 mL application volume at a rate of 187 L/ha.
For treatments comprised of formulated compounds, measured amounts of compounds were placed individually in 25 mL glass vials and diluted in a volume of 1.25% (v/v) Agri-Dex® crop oil concentrated to obtain 12× stock solutions. […] Application solutions were prepared by adding an appropriate amount of each stock solution (e.g., 1 mL) and diluted to the appropriate final concentrations with the addition of 10 mL of an aqueous mixture of 1.25% (v/v) crop oil concentrate so that the final spray solutions contained 1.25+/−0.05% (v/v) crop oil concentrate.
For treatments comprised of formulated and technical compounds, weighed amounts of the technical materials were placed individually in 25 mL glass vials and dissolved in a volume of 97:3 v/v acetone/DMSO to obtain 12× stock solutions, and measured amounts of the formulated compounds were placed individually in 25 mL glass vials and diluted in a volume of 1.5% (v/v) crop oil concentrate or water to obtain 12× stock solutions. […] Application solutions were prepared by adding an appropriate amount of each stock solution (e.g., 1 mL) and diluted to the appropriate final concentrations with the addition of an appropriate amount of an aqueous mixture of 1.5% (v/v) crop oil concentrate so that the final spray solutions contained 1.25% (v/v) crop oil concentrate. As required, additional water and/or 97:3 v/v acetone/DMSO was added to individual application solutions so that the final acetone and DMSO concentrations of the application solutions being compared were 8.1% and 0.25%, respectively.
All stock solutions and applications solutions were visually inspected for compound compatibility prior to application. Spray solutions were applied to the plant material with an overhead Mandel track sprayer equipped with a 8002E nozzles calibrated to deliver 187 L/ha over an application area of 0.503 m^2 at a spray height of 18 to 20 inches (46 to 50 cm) above average plant canopy height. […]

Row | SMILES | Visual Weed Control (%) - 20 DAA ECHCG Obs (4.38 gae/ha) [%] | Visual Weed Control (%) - 22 DAA ECHCG Obs (4.38 gae/ha) [%] | Visual Weed Control (%) - 22 DAA ECHCG Obs (8 gae/ha) [%] | Visual Weed Control (%) - 22 DAA ECHCG Obs (8.75 gae/ha) [%] | Visual Weed Control (%) - 22 DAA ECHCG Obs (16 gae/ha) [%] | Visual Weed Control (%) - 22 DAA ECHCG Obs (32 gae/ha) [%] | Visual Weed Control (%) - 22 DAA ECHCG Obs (5.3 gae/ha) [%] | Visual Weed Control (%) - 20 DAA ECHCG Obs (8.75 gae/ha) [%] | Visual Weed Control (%) - 22 DAA ECHCG Obs (10.6 gae/ha) [%]
1 | COc1c(Cl)ccc(-c2nc(C(=O)OCc3ccccc3)c(Cl)c(N)c2F)c1F [Compound A Benzyl Ester, benzyl ester of 4-amino-3-chloro-5-fluoro-6-(4-chloro-2-fluoro-3-methoxy-phenyl)pyridine-2-carboxylic acid] | 40 | 40 | 35 | 60 | 65 | 80 | – | – | –
2 | COc1c(Cl)ccc(-c2nc(C(=O)O)c(Cl)c(N)c2F)c1F [Compound A Acid, 4-amino-3-chloro-6-(4-chloro-2-fluoro-3-methoxyphenyl)-5-fluoropyridine-2-carboxylic acid] | 25 | – | – | – | – | – | 65 | 80 | 55
